# In PMC10281575, “PfCRT mutations conferring piperaquine resistance in falciparum malaria shape the kinetics of quinoline drug binding and transport” (PLOS Pathogens, 2023):
# Several values for one entry are separate records, joined by “and”; a condition that tells them apart may be missing. Identical values can stand only once.
# Molecular target: T1, PfCRT^Dd2 (Plasmodium falciparum, UniProt Q8IBZ9, A220S/I356T/K76T/M74I/N326S/N75E/Q271E/R371I)
# T1 sequence (Q8IBZ9 1-424 M74I/N75E/K76T/A220S/Q271E/N326S/I356T/R371I): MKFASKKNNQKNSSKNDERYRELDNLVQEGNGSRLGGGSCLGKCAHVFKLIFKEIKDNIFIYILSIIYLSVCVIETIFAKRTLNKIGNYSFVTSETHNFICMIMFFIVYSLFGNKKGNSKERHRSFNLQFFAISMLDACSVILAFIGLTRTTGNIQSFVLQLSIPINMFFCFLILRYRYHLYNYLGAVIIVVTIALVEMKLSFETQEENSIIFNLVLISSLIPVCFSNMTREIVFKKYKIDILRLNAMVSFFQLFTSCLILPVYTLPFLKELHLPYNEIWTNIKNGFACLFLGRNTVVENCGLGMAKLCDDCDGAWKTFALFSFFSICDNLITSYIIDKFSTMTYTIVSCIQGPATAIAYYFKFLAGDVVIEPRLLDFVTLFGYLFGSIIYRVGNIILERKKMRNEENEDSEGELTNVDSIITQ
# Experiment: Competition kinetics of drug transport (radiolabeled substrate plus cold inhibitor), PfCRT^Dd2-expressing oocytes
# Assay type: cell-based
# Parameters: expressed in transfected cells; host or cells: Xenopus laevis oocytes injected with in vitro transcribed RNA (pSP64T)
# Conditions: single replicates
# Protocol: The experimental procedure and the data analysis were as described above.
# The difference between the two models lies in the value of α, a parameter describing how much the affinity for the substrate changes when the inhibitor is already bound, and vice versa. […] The resulting Vmax,app values and the Vmax,app/KM,app ratios were plotted as a function of the inhibitor concentration (Fig 5A).
# Drug transport assays were performed as previously described. Briefly, measurements of radiolabeled drug uptake were made over 1 h, unless otherwise specified. […] Where specified, one or more unlabeled drugs were also present at the indicated concentrations. […] The uptake assays were terminated by removing the oocytes from the reaction medium and washing them three times with 2 mL of ice-cold ND96 buffer. Each oocyte was transferred to a separate scintillation vial and lysed by the addition of 200 μL of a 5% SDS solution. The radioactivity in the sample was measured using a liquid scintillation analyser Tri-Carb 4910 TR (PerkinElmer). Water-injected oocytes were analyzed in parallel as a negative control. The buffer from each condition was measured in duplicate in parallel to each experiment to transform counts per minute into pmol of drug. Drug uptake attributable to PfCRT was determined by subtracting the background uptake from water-injected oocytes from that of PfCRT-expressing oocytes. In all cases, at least three independent experiments were performed on oocytes from different frogs, and for each condition in an experiment, measurements were made from 10 oocytes per treatment.
# The following equations were adopted from Segel (1993), and the reader is referred to that text for the assumptions made in the author’s approach in the derivation of each equation [31]. The concentration of substrate is denoted as [S1] and the concentration of the inhibiting substrate is denoted as [S2]. KS1 and KS2 are the dissociation constants for the respective substrate-protein complexes.
# Analyses of the kinetic data were performed using SigmaPlot version 13.0 and Python. The drug competition models were globally fit to the kinetic data using the least-squares method and ranked according to their corrected Akaike information criterion difference (ΔAICC) and their Akaike weight, using Python. The two top-ranked models were compared using an F-test.
# This factor reflects how much the affinity of the transporter for one drug changes when the other drug is already bound in the protein cavity. In the former model, α > 0 and α ≠ 1. In the latter model, it could be thought of as if α = 1. Because of this, discriminating between the two models also means determining the value of α. In Mixed-type (Partial) inhibition, the apparent maximal velocity (Vmax,app) is given by Eq 22, Vmax,app=Vmax(1+β[S2]/αKS2)/(1+[S2]/αKS2) (Eq 22)
# Vmax,app is the maximal rate of substrate transport at a certain inhibitor concentration. The half-maximal inhibitory concentration is given by the term in the denominator different from [S2], which in this case is αKS2. This means that by plotting Vmax,app as a function of [S2], the value of αKS2 can be derived after fitting the curve to Eq 23.
# The half-maximal inhibitory concentration derived from this hyperbolic equation is equal to KS2. By plotting Vmax,app/KM,app as a function of [S2], one can derive KS2 after fitting the curve to Eq 25. The value of α can then be calculated dividing αKS2 by KS2.
smiles,measurement,setting,value
"CCN(CC)CCCC(C)Nc1ccnc2cc(Cl)ccc12 (stereo not drawn) [CQ, chloroquine]",PfCRTDd2-mediated CQ transport 10 µM CQ,0 µM PPQ,0.87 pmol oocyte-1 h-1 and 1.33 pmol oocyte-1 h-1 and 1.00 pmol oocyte-1 h-1 and 0.95 pmol oocyte-1 h-1
same,PfCRTDd2-mediated CQ transport 10 µM CQ,50 µM PPQ,1.41 pmol oocyte-1 h-1 and 1.10 pmol oocyte-1 h-1 and 0.61 pmol oocyte-1 h-1
same,PfCRTDd2-mediated CQ transport 10 µM CQ,125 µM PPQ,0.68 pmol oocyte-1 h-1 and 1.41 pmol oocyte-1 h-1 and 1.40 pmol oocyte-1 h-1
same,PfCRTDd2-mediated CQ transport 10 µM CQ,200 µM PPQ,0.89 pmol oocyte-1 h-1 and 0.30 pmol oocyte-1 h-1 and 1.02 pmol oocyte-1 h-1
same,PfCRTDd2-mediated CQ transport 10 µM CQ,350 µM PPQ,1.16 pmol oocyte-1 h-1 and 0.24 pmol oocyte-1 h-1 and 0.95 pmol oocyte-1 h-1
same,PfCRTDd2-mediated CQ transport 10 µM CQ,500 µM PPQ,0.43 pmol oocyte-1 h-1 and 1.04 pmol oocyte-1 h-1 and 0.36 pmol oocyte-1 h-1
same,PfCRTDd2-mediated CQ transport 50 µM CQ,0 µM PPQ,3.90 pmol oocyte-1 h-1 and 4.91 pmol oocyte-1 h-1 and 4.76 pmol oocyte-1 h-1 and 7.49 pmol oocyte-1 h-1 and 10.46 pmol oocyte-1 h-1 and 5.04 pmol oocyte-1 h-1 and 3.98 pmol oocyte-1 h-1
same,PfCRTDd2-mediated CQ transport 50 µM CQ,50 µM PPQ,6.48 pmol oocyte-1 h-1 and 5.07 pmol oocyte-1 h-1 and 3.08 pmol oocyte-1 h-1 and 4.12 pmol oocyte-1 h-1
same,PfCRTDd2-mediated CQ transport 50 µM CQ,125 µM PPQ,4.96 pmol oocyte-1 h-1 and 2.54 pmol oocyte-1 h-1 and 3.07 pmol oocyte-1 h-1
same,PfCRTDd2-mediated CQ transport 50 µM CQ,200 µM PPQ,3.46 pmol oocyte-1 h-1 and 2.63 pmol oocyte-1 h-1 and 3.11 pmol oocyte-1 h-1
same,PfCRTDd2-mediated CQ transport 50 µM CQ,350 µM PPQ,2.38 pmol oocyte-1 h-1 and 2.66 pmol oocyte-1 h-1 and 3.48 pmol oocyte-1 h-1
same,PfCRTDd2-mediated CQ transport 50 µM CQ,500 µM PPQ,2.32 pmol oocyte-1 h-1 and 2.15 pmol oocyte-1 h-1 and 3.29 pmol oocyte-1 h-1
same,PfCRTDd2-mediated CQ transport 100 µM CQ,0 µM PPQ,8.35 pmol oocyte-1 h-1 and 7.99 pmol oocyte-1 h-1 and 8.53 pmol oocyte-1 h-1
same,PfCRTDd2-mediated CQ transport 100 µM CQ,50 µM PPQ,9.49 pmol oocyte-1 h-1 and 7.68 pmol oocyte-1 h-1 and 5.55 pmol oocyte-1 h-1
same,PfCRTDd2-mediated CQ transport 100 µM CQ,125 µM PPQ,5.95 pmol oocyte-1 h-1 and 8.32 pmol oocyte-1 h-1 and 6.55 pmol oocyte-1 h-1
same,PfCRTDd2-mediated CQ transport 100 µM CQ,200 µM PPQ,5.59 pmol oocyte-1 h-1 and 6.01 pmol oocyte-1 h-1 and 5.66 pmol oocyte-1 h-1
same,PfCRTDd2-mediated CQ transport 100 µM CQ,350 µM PPQ,5.36 pmol oocyte-1 h-1 and 3.63 pmol oocyte-1 h-1 and 6.93 pmol oocyte-1 h-1
same,PfCRTDd2-mediated CQ transport 100 µM CQ,500 µM PPQ,4.92 pmol oocyte-1 h-1 and 5.26 pmol oocyte-1 h-1 and 4.17 pmol oocyte-1 h-1
same,PfCRTDd2-mediated CQ transport 200 µM CQ,0 µM PPQ,17.86 pmol oocyte-1 h-1 and 12.77 pmol oocyte-1 h-1 and 15.13 pmol oocyte-1 h-1
same,PfCRTDd2-mediated CQ transport 200 µM CQ,50 µM PPQ,13.29 pmol oocyte-1 h-1 and 13.73 pmol oocyte-1 h-1 and 11.63 pmol oocyte-1 h-1
same,PfCRTDd2-mediated CQ transport 200 µM CQ,125 µM PPQ,10.25 pmol oocyte-1 h-1 and 14.35 pmol oocyte-1 h-1 and 10.52 pmol oocyte-1 h-1
same,PfCRTDd2-mediated CQ transport 200 µM CQ,200 µM PPQ,10.68 pmol oocyte-1 h-1 and 10.09 pmol oocyte-1 h-1 and 9.74 pmol oocyte-1 h-1
same,PfCRTDd2-mediated CQ transport 200 µM CQ,350 µM PPQ,11.39 pmol oocyte-1 h-1 and 6.27 pmol oocyte-1 h-1 and 10.49 pmol oocyte-1 h-1
same,PfCRTDd2-mediated CQ transport 200 µM CQ,500 µM PPQ,7.85 pmol oocyte-1 h-1 and 9.03 pmol oocyte-1 h-1 and 9.31 pmol oocyte-1 h-1
same,PfCRTDd2-mediated CQ transport 300 µM CQ,0 µM PPQ,20.89 pmol oocyte-1 h-1 and 20.25 pmol oocyte-1 h-1 and 8.92 pmol oocyte-1 h-1 and 15.94 pmol oocyte-1 h-1 and 19.02 pmol oocyte-1 h-1
same,PfCRTDd2-mediated CQ transport 300 µM CQ,50 µM PPQ,15.04 pmol oocyte-1 h-1 and 14.02 pmol oocyte-1 h-1 and 15.34 pmol oocyte-1 h-1
same,PfCRTDd2-mediated CQ transport 300 µM CQ,125 µM PPQ,15.92 pmol oocyte-1 h-1 and 14.01 pmol oocyte-1 h-1 and 11.66 pmol oocyte-1 h-1
same,PfCRTDd2-mediated CQ transport 300 µM CQ,200 µM PPQ,11.11 pmol oocyte-1 h-1 and 12.97 pmol oocyte-1 h-1 and 12.36 pmol oocyte-1 h-1
same,PfCRTDd2-mediated CQ transport 300 µM CQ,350 µM PPQ,11.84 pmol oocyte-1 h-1 and 11.95 pmol oocyte-1 h-1 and 8.89 pmol oocyte-1 h-1
same,PfCRTDd2-mediated CQ transport 300 µM CQ,500 µM PPQ,11.31 pmol oocyte-1 h-1 and 9.89 pmol oocyte-1 h-1 and 9.29 pmol oocyte-1 h-1
same,PfCRTDd2-mediated CQ transport 400 µM CQ,0 µM PPQ,20.79 pmol oocyte-1 h-1 and 22.58 pmol oocyte-1 h-1 and 19.58 pmol oocyte-1 h-1 and 16.43 pmol oocyte-1 h-1
same,PfCRTDd2-mediated CQ transport 400 µM CQ,50 µM PPQ,18.68 pmol oocyte-1 h-1 and 19.12 pmol oocyte-1 h-1 and 16.44 pmol oocyte-1 h-1
same,PfCRTDd2-mediated CQ transport 400 µM CQ,125 µM PPQ,13.83 pmol oocyte-1 h-1 and 18.03 pmol oocyte-1 h-1 and 15.59 pmol oocyte-1 h-1
same,PfCRTDd2-mediated CQ transport 400 µM CQ,200 µM PPQ,14.22 pmol oocyte-1 h-1 and 13.47 pmol oocyte-1 h-1 and 13.35 pmol oocyte-1 h-1
same,PfCRTDd2-mediated CQ transport 400 µM CQ,350 µM PPQ,14.38 pmol oocyte-1 h-1 and 9.22 pmol oocyte-1 h-1
same,PfCRTDd2-mediated CQ transport 400 µM CQ,500 µM PPQ,12.77 pmol oocyte-1 h-1 and 10.16 pmol oocyte-1 h-1 and 8.34 pmol oocyte-1 h-1
